US12257294B2, “Therapeutics for autoimmune disease: synthetic antigens” (DANMARKS TEKNISKE UNIVERSITET, priority 2018, dated 2025)
Non-standard residues stand in square brackets, D forms with d. No end group written: not given here. Cit = NC(=O)NCCC[C@H](N)C(=O)O; {NH2} = amino modification

Assays:
purified SLE-antibodies = test: ELISA selectivity of antigens D7 and D8 for purified SLE antibodies; format: binding; details: vs control samples comprising other antibodies
Method: SLE antibodies from sera were captured by affinity chromatography using NHS-sepharose and modified antigens as specified in table 9. […] Sera was pre-treated with CaCl2)/dextran to remove lipoproteins prior to applying to column. Sera sample was added to column; incubated for 4 min; washed at 0.5 ml/min flow rate with 20 mM PBS, 5 column volumes; and finally SLE antibodies were eluted with 3 column volumes of 100 mM glycine-HCl, 10% dioxane pH 2.5-3.
Standard ELISA was used to test the selectivity of D7 and D8. ELISA plates comprising antigens D7 and D8, respectively, were tested for their ability to specifically bind the purified SLE-antibodies compared to control samples comprising other antibodies.

NZB/W F1 mice = test: SLE mice study, SLEDAI; format: in vivo; details: 2 weeks of treatment and 2 weeks after
Method: […]1 in 1×PBS was administered by IV in the tail vain every 12 h over 2 weeks, at a conjugate dosage of 160 μg/kg animal weight for 10 nM concentration. 30 mice were tested; 80% were female; average age 20 week; average weight/median 20.2 g (18.4 g-23.1 g). […] (HQ) was used as control, PO, 2 mg/kg, every 24 h over 2 weeks.

NZB/W mice = test: In vivo mice assay, disease activity index (DAI); details: control treatment, same regimen
Method: For the further in vivo test, a well-described mice model was selected: NZB/W mice, these have been used as a model for autoimmune disease since the early 1960s. Mice of this hybrid cross develop an autoimmune disease resembling human SLE. Nine-week-old NZB/W mice were kindly provided by […] group, Statens Serum Institute, Denmark; they were grown and tested for the presence of anti-dsDNA antibodies as described in example 6. […] Two mice were used for each conjugate. Mice received IV conjugate/control administration (same amount each time), with 12 h intervals for 5 days, and afterwards giving the same dose with 3 day interval over 3 weeks. […] Administration regimen for same as for nanoconjugate complexes: IV in tail vein with 12 h interval for 5 days, and afterwards giving the same dose with 3 day interval. Blood samples were withdrawn at time points: 24 h, 48 h, 1 week, 4 weeks after the beginning of each treatment. Plasma was centrifuged using Qiagen blood storage tubes and stored at -20° C. prior to analyses. ELISA analysis was performed using manufacturer's protocols in sera dilution 1:100 to 1:500. […] At early time points 10 nM conjugate works better than 1 nM.

[1] = tested on: autoantibodies in plasma of RA patients, SLE and healthy controls; test: ELISA testing of PEP2 and PEP2-nanoconjugates; format: binding, human; details: 30 individuals
Method: Prior to ELISA, total amount of protein in each sample was estimated by Bradford method using standard curve of BSA control at known concentration (BioRad). In a maxisorb 96 well plate controls (BSA standard samples at concentrations 2 mg/mL, 1 mg/mL, 0.5 mg/mL and 0.1 mg/mL) and plasma sample were mixed with a Bradford reagent following manufacturer's protocol (BioRad). Plasma samples were used in dilution 1:100. Resulting absorbances at 595 nm were measured on Magellan Tecan microplate reader. Total amount of protein was calculated using standard curve.
ELISA: Maxisorb 96 well plates (NUNC Thermofisher) were coated with nanoparticle antigens/controls at concentration 8 μg/mL in 1×PBS overnight (room temperature; 100 μl/well). After washing with 1×PT (2×300 μl/well, PT: 50 μl Tween-20 in 1 L 1×PBS), the plates were blocked with 1×PTB (1 h, 37° C.; 100 μl/well, PTB: 20 g BSA, 50 μl Tween-20 in 1 L 1×PBS). Incubation with plasma at desired dilution was performed at room temperature for 1.5 h using diluent: 2 g BSA, 50 μl Tween-20 in 1 L 1×PBS (100 μl/well). This was followed by washing (2×300 μl 1×PBS) and incubation with HPR-labelled secondary antibody for 1.5 h at room temperature using same diluent and dilution of the secondary antibody provided by supplier (HPR-conjugated a-aIgG; Sigma). Subsequent washing (2×300 μl PT) and incubation with freshly prepared TMB-H2O2 solution (Sigma; 100 μl/well) was followed by adding a stop solution (1M H2SO4; 50 μl/well) and reading resulting absorbance values at 450 nm on Magellan Tecan microplate reader. Linear range for each antigen was determined via testing series of control dilutions (SLE and healthy controls in dilutions 1:50 to 1:2000). According to the results plasma dilutions 1:100-1:500 were within linear range of the assay for each antigen (R2>0.95).

[2] = Scanning electron microscopy, nanoparticle size; format: physicochemical; details: SEM
Method: Nanosight experiment: Nanosight measurement was done in Jang lab, DTU, using Nano sight equipment NTA Version: NTA 3.1 Build 3.1.46 with Script SOP Standard Measurement 03-47-19PM 20D. The cell of the equipment must be cleaned and unscrewed totally by ethanol and Millipore water. 500 μL diluted sample was injected three times for three run and the concentration of Nanoparticles was adjusted using water pH 6 if the concentration of samples doesn't fit the analysis. The size distribution data and the size with maximum number of particles were recorded, see FIG. 10.
Scanning Electron Microscopy (SEM): The morphology of the Chitosan nanoparticles (NP) was investigated using a Quanta FEG 3D scanning electron microscope (SEM). Samples were attached on metal stubs with double-sided adhesive carbon tape and coated with 6 nm of gold for better conductivity using a sputter coater (Leica Coater ACE 200). The average NP diameter was calculated using image J analysis software (National Institutes of Health, MD, USA) measured at different NP for each image.

[3] = tested on: ACPA in RA sera (vs healthy controls and SLE); test: ELISA screening of citrullinated peptide library; format: binding, human
Description: Citrullinated peptide antigens PEP1-PEP25 (SEQ ID No 9-33) (free amine and carboxy-termini) have been purchased from CALSO, Copenhagen, Denmark, and screened in ELISA of a cohort of 30 RA patients, 30 matched healthy controls and 30 patients with systemic lupus erythematosus. Overall, 16 peptide antigens […], from all the three groups, recognised RA sera.

| Compound | Positive individuals, %: Disease control SLE [1] | Positive individuals, %: Healthy [1] | Positive individuals, %: Patients with RA [1] | Positive individuals, n: Disease control SLE [1] | Positive individuals, n: Healthy [1] | Positive individuals, n: Patients with RA [1] | Average nanoparticle size [2] | also measured |
| --- | --- | --- | --- | --- | --- | --- | --- | --- |
| NH2-(TCCT)6:(AGGA)6 (TCCTTCCTTCCTTCCTTCCTTCCT; DNA, 5' {NH2}, backbone and methylation of C not given here; further chemistry not fully specified) [Conjugate D8, Pre-annealed amino-modified duplex antigen] |  |  |  |  |  |  |  | Selectivity for SLE antibodies (purified SLE-antibodies): selective for SLE antibodies |
| Oc1ccc(O)cc1 [HQ, Hydroquinone] |  |  |  |  |  |  |  | SLEDAI (SLE disease activity index), course (NZB/W F1 mice): reduces SLEDAI faster; however the disease flares after day 17 in treatment |
| Gentamicin [reference compound] |  |  |  |  |  |  |  | Effect on DAI (NZB/W mice): only a short term drop in DAI |
| NP1: Chitosan/Hyaluronic acid/PEG/PEP2 nanoconjugate, presumably covalent attachment of peptide via PEG to CS/HA (HHPGIAEFPS[Cit]GKSYSYSKQF; ends and bridges not checked; also: presumably covalently attached via PEG to chitosan/hyaluronic acid nanoconjugate) | (7) % | (3) % | (57) % | 2 | 1 | 17 | 100-300 nm |  |
| HHP GIA EFP S(Cit)G KSY SYS KQF (HHPGIAEFPS[Cit]GKSYSYSKQF) [PEP2] | (7) % | (0) % | (57) % | 2 | 0 | 17 |  | Binding in RA samples (share of patients) ([3]; 30 RA patients): 57%; Binding in healthy controls (share) ([3]; 30 matched healthy controls): 0%; Binding in SLE (share of patients) ([3]; 30 patients with systemic lupus erythematosus): 7% |
| NP2: Chitosan/Hyaluronic acid/PEG/PEP2 nanoconjugate, presumably non-covalent attachment of peptide to CS/HA (HHPGIAEFPS[Cit]GKSYSYSKQF; ends and bridges not checked; also: presumably non-covalently loaded in chitosan/hyaluronic acid/PEG nanoconjugate) | (7) % | (7) % | (53) % | 2 | 2 | 16 | 520 nm |  |
